The results in this text go back to patent US20230226047A1, “COMBINATION THERAPY FOR TREATMENT OF CANCERS” (Health Research, Inc., priority 2019, published 2023).

SMILES strings stand for the structures. Entries after “also recorded” stand apart in the source; their conditions may differ.

The subject of one assay is C42 cells. As to the kind of experiment: Flow cytometry of MHC expression after MCTP-39 and IFNg treatment, human C42 cells. It counts as cell-based. To be noted: combined treatment with MCTP-39 and IFNg, FIG. 7A. The method, then: (§1) Cell proliferation: Knock down of WHSC1 in C4-2 and TRAMP C-2 cells is discussed in previous sections. Cells were counted at 48, 96 and 144 hours. For pharmacological inhibition, cells either C4-2 or TRAMP C2 were seeded overnight at 4×10^3 cells per 100 μl media in a 96 well plate, the following day cells were treated with vehicle control or different concentrations of MCTP-39 (0-10 μM) for 48 hours. After 48 hours, C4-2 or TRAMP C-2 cells were either counted or used for staining with MHCI/II antibodies. Briefly cells were detached using trypsin and washed with FACS buffer for 5 minutes at 300 g. The pellet was resuspended in FACS buffer and stained with MHC-I/II antibodies for 20 minutes at 4 C. After incubation, cells were washed with FACS buffer 2× and resuspended in 200 μl of FACS buffer before acquiring the data on a flow cytometer.
Background: A flow cytometer gives signals particle by particle.

The subject of a further assay is TRAMP C2 cells. As to the kind of experiment: Flow cytometry of MHC expression after MCTP-39 and IFNg treatment, murine TRAMP C2 cells. It is filed as cell-based. To be noted: combined treatment with MCTP-39 and IFNg, FIG. 7B. The procedure: as §1
Assay [1] relates to OVA-overexpressing TRAMP C2 cells. As to the kind of experiment: Flow cytometry of antigen-bound MHC (OVA-bound H2Kb). To be noted: 48 hours, FIG. 7C-D. It is filed as cell-based, murine. The text has this: OVA overexpression: Soluble ovalbumin (OVA) gene, which was amplified from pCI-neo-sOVA (Addgene plasmid 25098), and monomeric enhanced green fluorescent protein (mEGFP) gene, which was amplified from mEGFP-N1 (Addgene plasmid 54767), were genetically fused via P2A translational skipping sequence and cloned in the Sleeping Beauty transposon plasmid with the human elongation factor 1α promoter. This plasmid, pT2-EF-OVA-mEGFP, was electroporated together with the Sleeping Beauty Transposase plasmid, pCMV(CAT)T7-SB100 (a gift from Zsuzsanna Izsvak; Addgene plasmid #34879), into TRAMP-C2 by Nucleofector 4D instrument. The electroporated cells were kept in maintenance medium (DMEM supplemented with 10% FBS, 0.005 mg/ml bovine insulin, 1 nM DHT and cell sorted based on mGFP expression using FACS Aria I cell sorter. The expression of OVA on sorted cells were confirmed by western blotting using rabbit polyclonal OVA antibody (ab186717) at 1:4000 dilution and flow cytometry using PE anti-mouse H-2K^b bound to SIINFEKL (BioLegend) before incubating with or without MCTP-39 for 48 hours. The expression of OVA was analyzed after 48 hours by flow cytometry using BDLSRIIA cytometer and data was analyzed by FCS express 7 Research Edition.

For assay [2], the system named is TRAMP C2 cells grafted in C57B/6 mice. Nature of the assay: TRAMP C2 subcutaneous graft in immunocompetent C57B/6 mice. It is filed as in vivo, mouse. The method, then:
(§2) Immunotherapy in prostate cancer (PCa) lags behind the progresses obtained in other cancer types partially because of its limited immune infiltration. While a few studies reported increased homing of immune cells in response to androgen deprivation therapy (ADT), the mechanism by which this occurs is still poorly understood. Using TCGA PCa RNASeq data patients were divided into top/bottom 30% based on the expression of WHSC1 and DFS was calculated for both groups. Publicly available ChIPSeq data were obtained from Cistrome and integrated with the available RNASeq data. RNASeq, ATACSeq and EPIC Infinium MethylArrays were analyzed using R Bioconductor packages comparing C42 cells with or without stable knockdown on WHSC1. Flow cytometry was used to measure MHC levels, MHC-bound OVA and tumor infiltration. C57B6 and NSG mice were subcutaneously grafted with TRAMP C2 cells and treated with MCTP39 (10 mg/kg); tumor size was monitored over time and curves compared using permutation analyses. All analyses use a significance threshold of 0.05.
Mice and in vivo experiments: Male C57B/6J mice (6-8 weeks of age) and NSG mice (10-12 weeks of age) were obtained from the Roswell Park's Center For Immunotherapy breeding colonies. All in vivo experiments were made following institutional and IACUC regulations. In vivo experiments were not blinded. C2 cells (1×10^6 cells/100 μl) were injected subcutaneously into the right flank of male C57BL/6J mice (n=6/group) or NSG mice (n=5/group) using a 27 G needle. Sample size was chosen based on pilot studies and chosen to include the potential loss of mice prior treatment. Tumor volume was monitored weekly with an electronic caliper and calculated as V=(W^2×L)/2, where Vis tumor volume, W is tumor width and L is tumor length. When tumors reached 100 mm^3, mice were randomized prior treatment with either MCTP-39 (10 mg/kg 5×/week/4 weeks) or vehicle control. Mice were euthanized either when tumors reached […] in any dimension, as per Institutional IACUC regulations, when mice show signs of advanced disease or after 4 weeks of treatment. Tumors were harvested and weighted, single cells suspension was prepared using the Tumor dissociation kit (Miltenyi Biotech) as per manufacturing instructions prior flow cytometry analysis.
Flow cytometry and antibodies: Single cell suspension from tumors was stained the antibodies listed in Table S3 (FIG. 14) for 20 min at 4° C. After staining, cells were washed and fixed with fixation buffer for 15 min at 4° C. followed by washing 2× with FACS buffer. Cells were resuspended in 200 μl of FACS buffer before acquiring data on BDLSR IIA flow cytometer. Data were analyzed using FCS express 7 Research Edition.
Statistical methods: Survival analysis was performed dividing patients based on the upper/lower 25% of the expression levels of WHSC1, significance, HR and confidence intervals were calculated using cox proportional hazard model available in the R package survival. […] Significance for the AUC analysis was calculated by simulating 10,000 AUCs using randomly selected genes in the RNASeq dataset. The empirical p value was calculated by dividing the number of expected/simulated AUCs higher than our observed value by 10,000 (number of simulations). Significance when comparing two groups was calculated via two-tailed Student's t.test at a significance threshold of 0.05. […]

In assay [3] the test system is TRAMP C2 cells grafted in NSG mice. As to the kind of experiment: TRAMP C2 subcutaneous graft in immunocompromised NSG mice. It counts as in vivo, mouse. To be noted: 10 mg/kg, four weeks, p=0.1461, permutation test, FIG. 8B. The method, then: as §2
Mice and in vivo experiments: Male C57B/6J mice (6-8 weeks of age) and NSG mice (10-12 weeks of age) were obtained from the Roswell Park's Center For Immunotherapy breeding colonies. […] Tumor volume was monitored weekly with an electronic caliper and calculated as V=(W^2×L)/2, where Vis tumor volume, W is tumor width and L is tumor length. […]

Setting [4] is: C57B/6 mice, tumors at endpoint, flow cytometry, FIG. 8C.

Turning to `NNc1nc2ccccc2[nH]c1=S` [MCTP39], the “upregulating HLA-B7, HLA-F, HLA-E, HLA-DQ, HLA-DM” value in the assay on C42 cells was “additive effect”. Moreover, in the assay on TRAMP C2 cells, the “upregulating murine H2Kb I-A/I-E” value was “additive effect”. Further, the “OVA-bound H2Kb fraction” value in assay [1] is on record as “increased”. The Tumor growth entry in assay [2] (C57B/6 mice, 10 mg/kg IP for four weeks, p=0.0023, permutation test, FIG. 8A, 10 mg/kg) is “significantly reduced”; in assay [3], “limited and non-significant effect; also recorded: Not Significant; also recorded: not observed”. Also, the Tumor weight entry in assay [2] (C57B/6 mice, at endpoint, FIG. 8C) is “reduced”. Moreover, the “CD8+ T cells infiltration” value in assay [2] (setting [4]) is on record as “increased”. Moreover, the “H2Kb (MHC) expression on the tumor” value in assay [2] (setting [4]) is reported as “increased”. Also, in assay [2] (preliminary in vivo data), the “intratumoral CD8+PD1+ T cells” value is on record as “may increase”.
